“And” between values parts separate entries of the source, which are not always exact repeats. Equal values may be shown once. Read-outs that look alike come from different tables or passages of the source.
Legend:
[1] = tested on: BAD KO SV40 MEF; format: cell-based, mouse; settings: Mus musculus, 72 h
[2] = tested on: HepG2 cells; format: cell-based, human; settings: DOX 2 µM, OXA 10 µM, RCX 12 µM
Description: Briefly, the cells were harvested in a permeabilization solution containing 0.1% Triton X-100, 2 µg/mL PI, 0.1% sodium citrate and 100 µg/mL RNAse (all from Sigma-Aldrich) and incubated in the dark for 15 min at room temperature. Finally, cell fluorescence was measured by flow cytometry with a BD LSRFortessa cytometer using BD FACSDiva Software (BD Biosciences) and FlowJo Software 10 (FlowJo Lcc; Ashland, OR, USA). Ten thousand events were evaluated per experiment, and cellular debris was omitted from the analysis.

[3] = tested on: AGP-01; settings: AGP-01 (human ascitic gastric adenocarcinoma), 72 h
[4] = tested on: ACP-02; format: cell-based, human
[5] = tested on: MCF-7; format: cell-based, human
[6] = tested on: HepG2 cells; assay: Gene expression analysis by qPCR array (TaqMan Array Human Molecular Mechanisms of Cancer); format: cell-based; set-up: key to RQ CCND3 gene expression / RQ CDC42 gene expression / RQ DVL1 gene expression / RQ FYN gene expression / RQ KRAS gene expression / RQ MAP2K1 gene expression / RQ MAPK1 gene expression / RQ MAPK14 gene expression / RQ NFKB2 gene expression / RQ RAF1 gene expression / RQ RELA gene expression / RQ BCAR1 gene expression: 2^-ΔΔCT relative quantification vs 0.2% DMSO control (calibrator = 1); settings: HepG2, 12 h; RCX 12 µM, DOX 2 µM
Description: HepG2 cells were plated in bottles for cell culture (7 × 10^4 cells/mL). […] The RNA was evaluated by fluorimetry using QuBit (Life Technologies; Camarillo, CA, USA). RNA reverse transcription was performed using a Superscript VILO™ Kit (Invitrogen Corporation; Waltham, MA, USA). A 96-well plate TaqMan® Array Human Molecular Mechanisms of Cancer (ID 4418806, Applied Biosystems^TM, Foster City, CA, USA) was used for the gene expression study by qPCR. The reactions were conducted in an ABI ViiA7 system (Applied Biosystems^TM; Foster City, CA, USA). The cycle conditions comprised 2 min at 50 °C, 20 s at 95 °C, then 40 cycles of 3 s at 95 °C and 30 s at 60 °C. The relative quantification (RQ) of mRNA expression was calculated by the 2^-ΔΔCT method[40] using Gene Expression Suite™ Software (Applied Biosystems^TM), and the cells treated with the negative control (0.2% DMSO) were used as a calibrator. The reactions were normalized by the geometric mean of the RQ of the reference genes GAPDH, 18S and HPRT1. All experiments were performed in DNase/RNase-free conditions.

Compound: COc1cccc2c1C(=O)c1c(O)c3c(c(O)c1C2=O)C[C@@](O)(C(=O)CO)C[C@@H]3O[C@H]1C[C@H](N)[C@H](O)[C@H](C)O1 [DOX, doxorubicin]
- IC50 [1]: 410 nM
- DNA content G0/G1 ([2]; HepG2, 12 h): 51.9 ± 4.8%
- DNA content G2/M ([2]; HepG2, 12 h): 22.6 ± 2.6%
- DNA content S ([2]; HepG2, 12 h): 6.9 ± 0.1%
- DNA content Sub-G0/G1 ([2]; HepG2, 12 h): 13.4 ± 1.2 %
- DNA content G0/G1 ([2]; HepG2, 24 h): 20.9 ± 3.3 %
- DNA content G2/M ([2]; HepG2, 24 h): 66.9 ± 5.5 %
- DNA content S ([2]; HepG2, 24 h): 8.9 ± 2.3 %
- DNA content Sub-G0/G1 ([2]; HepG2, 24 h): 16.8 ± 4.3 %
- DNA content G0/G1 ([2]; HepG2, 48 h): 34.6 ± 2.7 %
- DNA content G2/M ([2]; HepG2, 48 h): 31.1 ± 3.3 %
- DNA content S ([2]; HepG2, 48 h): 9.1 ± 1.9%
- DNA content Sub-G0/G1 ([2]; HepG2, 48 h): 20.9 ± 1.0 %
- DNA content G0/G1 ([2]; HepG2, 72 h): 31.6 ± 5.1 %
- DNA content G2/M ([2]; HepG2, 72 h): 16.3 ± 1.1%
- DNA content S ([2]; HepG2, 72 h): 12.5 ± 1.1%
- DNA content Sub-G0/G1 ([2]; HepG2, 72 h): 46.6 ± 2.8 %
- IC50 [3]: 1900 nM
- IC50 ([4]; ACP-02 (human gastric adenocarcinoma), 72 h): 6800 nM
- selectivity index (SI) ([4]; IC50 HaCAT / IC50 ACP-02): 0.02
- selectivity index (SI) ([4]; IC50 MRC5 / IC50 ACP-02): 0.2
- selectivity index (SI) ([4]; IC50 PBMC / IC50 ACP-02): 0.8
- selectivity index (SI) ([5]; IC50 HaCAT / IC50 MCF-7): 0.1
- selectivity index (SI) ([5]; IC50 MRC5 / IC50 MCF-7): 1.2
- selectivity index (SI) ([5]; IC50 PBMC / IC50 MCF-7): 4.7
- IC50 ([5]; MCF7, MCF-7 (human breast adenocarcinoma), 72 h): 1100 nM
- RQ ABL1 gene expression [6]: 2.628
- RQ AKT1 gene expression [6]: 1.813
- RQ AKT2 gene expression [6]: 3.3 and 3.275
- RQ APC gene expression [6]: 1.780
- RQ BAX gene expression [6]: 0.964
- RQ BCAR1 gene expression [6]: 2.2 and 2.176
- RQ BCL2L1 gene expression [6]: 0.663
- RQ BCL2L11 gene expression [6]: 14.0 and 13.988
- RQ BCL2 gene expression [6]: 1.1 and 1.140
- RQ BID gene expression [6]: 1.433
- RQ BRAF gene expression [6]: 1.0 and 1.012
- RQ CASP8 gene expression [6]: 1.414
- RQ CASP9 gene expression [6]: 0.957
- RQ CCND1 gene expression [6]: 0.8 and 0.820
- RQ CCND3 gene expression [6]: 1.2 and 1.151
- RQ CCNE1 gene expression [6]: 1.535
- RQ CDC42 gene expression [6]: 1.1 and 1.077
- RQ CDK2 gene expression [6]: 4.331
- RQ CDK4 gene expression [6]: 1.4 and 1.427
- RQ CDKN1A gene expression [6]: 2.849
- RQ CDKN1B gene expression [6]: 1.0 and 1.029
- RQ CDKN2A gene expression [6]: 2.0 and 2.027
- RQ CRK gene expression [6]: 2.5 and 2.519
- RQ CTNNB1 gene expression [6]: 2.392
- RQ CYCS gene expression [6]: 0.582
- RQ DVL1 gene expression [6]: 0.5 and 0.539
- RQ E2F1 gene expression [6]: 4.8 and 4.768
- RQ EGFR gene expression [6]: 0.5 and 0.502
- RQ ELK1 gene expression [6]: 2.1 and 2.142
- RQ ERBB2 gene expression [6]: 1.8 and 1.746
- RQ FADD gene expression [6]: 3.100
- RQ FAS gene expression [6]: 2.5 and 2.459
- RQ FGF2 gene expression [6]: 1.9 and 1.914
- RQ FOS gene expression [6]: 1.514
- RQ FYN gene expression [6]: 1.0 and 1.034
- RQ FZD1 gene expression [6]: 5.8 and 5.811
- RQ GRB2 gene expression [6]: 1.030
- RQ GSK3B gene expression [6]: 0.590
- RQ HRAS gene expression [6]: 1.4 and 1.370
- RQ IGF1R gene expression [6]: 1.160
- RQ ITGA2B gene expression [6]: 2.4 and 2.384
- RQ ITGAV gene expression [6]: 2.101
- RQ ITGB1 gene expression [6]: 1.941
- RQ ITGB3 gene expression [6]: 1.707
- RQ JUN gene expression [6]: 7.3 and 7.340
- RQ KRAS gene expression [6]: 2.6 and 2.552
- RQ MAP2K1 gene expression [6]: 2.4 and 2.441
- RQ MAP3K5 gene expression [6]: 1.887
- RQ MAPK1 gene expression [6]: 0.9 and 0.857
- RQ MAPK3 gene expression [6]: 1.561
- RQ MAPK8 gene expression [6]: 1.273
- RQ MAPK14 gene expression [6]: 2.2 and 2.163
- RQ MDM2 gene expression [6]: 0.9 and 0.928
- RQ MYC gene expression [6]: 0.4 and 0.392
- RQ NFKB1 gene expression [6]: 2.0 and 2.017
- RQ NFKB2 gene expression [6]: 3.6 and 3.594
- RQ NFKBIA gene expression [6]: 1.224
- RQ NRAS gene expression [6]: 1.874
- RQ PIK3CA gene expression [6]: 2.854
- RQ PIK3R1 gene expression [6]: 6.207
- RQ PTEN gene expression [6]: 0.476
- RQ PTK2B gene expression [6]: 0.530
- RQ PTK2 gene expression [6]: 1.0 and 0.948
- RQ RAC1 gene expression [6]: 2.048
- RQ RAF1 gene expression [6]: 3.5 and 3.447
- RQ RB1 gene expression [6]: 1.230
- RQ RELA gene expression [6]: 1.1 and 1.074
- RQ RHOA gene expression [6]: 1.270
- RQ SHC1 gene expression [6]: 1.9 and 1.865
- RQ SMAD4 gene expression [6]: 2.6 and 2.601
- RQ SOS1 gene expression [6]: 2.2 and 2.199
- RQ SRC gene expression [6]: 1.036
- RQ TCF3 gene expression [6]: 1.9 and 1.915
- RQ TGFB1 gene expression [6]: 1.413
- RQ TGFBR1 gene expression [6]: 1.403
- RQ TGFBR2 gene expression [6]: 1.094
- RQ TP53 gene expression [6]: 1.0 and 0.945
- RQ VEGFA gene expression [6]: 1.8 and 1.772
